Where two headings read alike, the source gives them in different places. No end group written: not given here.
Legend:
[1] = test system: isolated guinea pig gallbladder; experiment: Functional activity in isolated guinea pig gallbladder preparation; type: cell-based
rat gastric emptying = experiment: Rat gastric emptying assay; type: in vivo; details: vehicle 66
Procedure: 7. RAT GASTRIC EMPTYING PROTOCOL
Methyl Cellulose (MC) Test Meal
1. Disperse MC in water at 80° C. at a final concentration of 1.5% under continuous stirring. Cool to room temperature.
2. Add Phenol Red (50 mg/100) to solution.
3. Keep solution stirring during entire experiment.
1. Food deprive animals for 18 hours.
2. Inject test drug/prop. glycol or prop. glycol alone intraperitoneally.
3. After 5 minutes, gavage 1.5 mL of Pheno Red/MC solution
1. After 20 minutes, decapitate animal
2. Clamp stomach at the pylorus and cardia ends, and rinse in 0.9% NaCl.
3. Place stomach in 100 mL of 0.1N NaOH, cut into small pieces, and homogenize for 30 seconds.
4. Let settle at room temperature for 60 minutes.
5. In centrifuge tube, add 5 mL of supernatant and 0.5 mL of trichloroacetic acid (29% w/v), and centrifuge at 2,800 rpm for 20 minutes.
6. Decant supernatant, and add 4 mL of 0.5N NaOH and read absorbance at a wavelength of 560 nm.
Calculations [formula] The standard stomach is determined from the phenol red recovered in stomachs of rats decapitated immediately after intragastric infusion of MC/phenol red.

Row | Compound | activation at 1 µM ([1]; Cavia porcellus, 1 × 10^-6 M test compound, expressed as % CCK-induced maximal response, read-out: %Contraction (1 × 10^-6 M)) | activation at 30 µM ([1]; Cavia porcellus, 3 × 10^-5 M test compound, expressed as % CCK-induced maximal response, read-out: % Contraction (3 × 10^-5 M)) | activation at 30 µM ([1]; Cavia porcellus, delivered at 30 μM, read-out: Isolated guinea pig gallbladder: % contraction) | rat gastric emptying: % emptying (rat gastric emptying; intraperitoneally at 0.1 μmoles/kg) | Isolated guinea pig gallbladder: % contraction ([1]; delivered at 1 μM) | rat gastric emptying: % emptying (rat gastric emptying; CCK-8 intraperitoneally at 30 nmoles/kg)
1 | COc1ccc(N(C(=O)CN2C(=O)C(Cc3n[nH]c4ccccc34)C(=O)N(c3ccccn3)c3ccccc32)C(C)C)cc1 (stereo not drawn) [Example 49, 2-[3-(1H-Indazol-3-ylmethyl)-2,4-dioxo-5-pyrid-2-yl-2,3,4,5-tetrahydro-benzo[b][1,4]diazepin-1-yl]-N-isopropyl-N-(4-methoxy-phenyl) acetamide] | 75% | 91% | 100% | 2.5% | – | –
2 | CCK8: the Cterminal octapeptide of CCK (DYMGWMDF; ends and bridges not checked; UniProt P06307 96-103, looked up) [reference compound] | – | – | – | – | 100% | 0%

Reference: patent US5859007A, “CCK or gastrin modulating benzo [b][1,4] diazepines derivatives” (Glaxo Wellcome Inc., priority 1994, dated 1999)
